Data as given in patent publication US7109220B2, “Amino substituted pyridinyl methanone compounds useful in treating kinase disorders” (Janssen Pharmaceutica N.V., priority 2003, dated 2006).

Experiments:
Type in all cases: biochemical
VEGF-R2 kinase = target: T1, VEGF-R2 kinase (Rattus norvegicus, UniProt O08775); test: VEGF-R2 Kinase Screening Assay; details: soluble rat VEGF-R2 kinase, 10 μM ATP; read-out: VEGF-R IC50
T1 construct: polyhistidine (N)
Method: (§1) A kinase reaction mixture was prepared containing 50 mM Tris-HCl pH=8, 10 mM MgCl2, 0.1 mM Na3PO4, 1 mM DTT, 10 μM ATP, 0.025 uM biotinylated peptide substrate and 0.8 μCuries per well^33P-γ-ATP [2000–3000 Ci/mmol]. 70 μL of the kinase reaction mixture was dispensed into the well of a streptavidin coated FlashPlate™ (Cat. #SMP103, NEN, Boston, Mass.). 1 μL of test compound stock in 100% DMSO was added to the wells resulting in a final concentration of 1% DMSO in the mixture with a 100 μL final reaction volume. Soluble rat VEGF-R2 kinase^3 was diluted in 50 mM Tris-HCl pH=8.0, 0.1% BSA at a concentration of 5 ng per microliter and 30 μL (150 ng enzyme per test well) was added to each well to initiate the reaction. The reaction was incubated for one hour at 30° C. At the end of the 1-hour incubation, the reaction was terminated by aspirating the reaction mixture from the plate and washing the wells twice with PBS containing 100 mM EDTA. The PLC1 biotinylated peptide substrate became immobilized on the Flashplate™ and the incoporation of ^33P-γ-ATP was measured by reading the plate on a scintillation counter. Inhibition of the enzymatic activity of the VEGF-R was measured by observing a reduced amount of ^33P-γ-ATP incorporated into the immobilized peptide. ^3VEGF-R2 kinase (Vascular Endothelial Growth Factor Receptor-2): a fusion protein containing a polyhistidine tag at the N-terminus followed by amino acids 786–1343 of the rat VEGF-R2 kinase domain GenBank Accession #U93306); Peptide Substrate (Biotin)KHKKLAEGSAYEEV-Amide
(§2) IC50 values listed as >10 or >100 indicate no observed 50% inhibition at the highest dose tested, nor was an inhibition maximum observed.

CDK1:Cyclin-B = target: T2, CDK1:Cyclin-B (Homo sapiens, UniProt P06493); test: CDK1 Screening Assay; details: 10 μM ATP, histone-H1 peptide substrate, 1 hour at 30° C.
T2 construct: purchased New England Biolabs, Beverly, Mass; (CDK1); BIOMOL, Plymouth Meeting, Pa; (Cyclin-B) #6020 (CDK1); #SE-195 (Cyclin-B); host or cells: insect cells
Method: (§3) A kinase reaction mixture was prepared containing 50 mM Tris-HCl pH=8, 10 mM MgCl2, 0.1 mM Na3PO4, 1 mM DTT, 10 μM ATP, 0.025 μM biotinylated histone-H1 peptide substrate and 0.2 μCuries per well^33P-γ-ATP [2000–3000 Ci/mmol]. 70 μL of the kinase reaction mixture was dispensed into the well of a streptavidin coated FlashPlate™ (Cat. #SMP103, NEN, Boston, Mass.). Then 1 μL of test compound stock in 100% DMSO was added to the wells resulting in a final concentration of 1% DMSO in the reaction with a 100 μL final reaction volume. CDK1:Cyclin-B protein^1 was diluted in 50 mM Tris-HCl pH=8.0, 0.1% BSA at a concentration of 1 ng per microliter. 30 μL (30 ng enzyme per test well) was added to each well to initiate the reaction, The reaction was incubated for one hour at 30° C. At the end of the 1-hour incubation, the reaction was terminated by aspirating the reaction mixture from the plate and washing the wells twice with PBS containing 100 mM EDTA. The histone-H1 biotinylated peptide substrate became immobilized on the Flashplate™ and the incorporation of ^33P-γ-ATP was measured by reading the plate on a scintillation counter. Inhibition of the enzymatic activity of CDK1 was measured by observing a reduced amount of ^33P-γ-ATP incorporated into the immobilized peptide. ^1CDK1 (cyclin dependent kinase 1) was isolated from insect cells expressing both the human CDK1 catalytic subunit and its positive regulatory subunit Cyclin B (CDK1: New England Biolabs, Beverly, Mass., Cat. #6020; Cyclin-B: BIOMOL, Plymouth Meeting, Pa., Cat. #SE-195); Peptide Substrate (Biotin)KTPKKAKKPKTPKKAKKL-Amide.
as §2

CDK2:Cyclin-E = target: T3, CDK2:Cyclin-E (Homo sapiens, UniProt P24941); test: CDK2 Screening Assay; details: 10 μM ATP, histone-H1 peptide substrate
T3 construct: purchased Upstate Biotechnology, Lake Placid, N.Y
Method: as §3
Using the procedure and materials of Example 1, replacing CDK1:Cyclin-B protein with CDK2:Cyclin-E protein^2, the IC50 data for CDK2 is shown in Table 2. ^2CDK2 (cyclin dependent kinase 2) in complex with cyclin E is commercially available (Upstate Biotechnology, Lake Placid, N.Y.); Peptide Substrate (Biotin)KTPKKAKKPKTPKKAKKL-Amide
IC50 values listed as ˜100 indicate no observed 50% inhibition at the highest dose tested, nor was an inhibition maximum observed.

HER2 kinase = target: T4, HER2 kinase (Homo sapiens, UniProt P04626); test: HER-2 Kinase Screening Assay; details: HER2 cytoplasmic domain construct, 10 μM ATP
T4 construct: polyhistidine (N); 24 additional non-native amino acids (between the His tag and HER2) (N)
Method: as §1
Using the procedure and materials of Example 3, replacing VEGF-R2 kinase with HER2^4, the IC50 data for HER2 kinase is shown in Table 4. ^4HER2 (Human Epidermal Growth Factor Receptor-2): a construct containing a polyhistidine tag at the N-terminus followed by 24 additional non-native amino acids beginning at amino acid 676 (Accession number M11730) followed by the remainder of the HER2 cytoplasmic domain; Peptide Substrate (Biotin)KHKKLAEGSAYEEV-Amide.
IC50 values listed as >100 indicate no observed 50% inhibition at the highest dose tested, nor was an inhibition maximum observed.

T2 sequence (P06493 whole entry): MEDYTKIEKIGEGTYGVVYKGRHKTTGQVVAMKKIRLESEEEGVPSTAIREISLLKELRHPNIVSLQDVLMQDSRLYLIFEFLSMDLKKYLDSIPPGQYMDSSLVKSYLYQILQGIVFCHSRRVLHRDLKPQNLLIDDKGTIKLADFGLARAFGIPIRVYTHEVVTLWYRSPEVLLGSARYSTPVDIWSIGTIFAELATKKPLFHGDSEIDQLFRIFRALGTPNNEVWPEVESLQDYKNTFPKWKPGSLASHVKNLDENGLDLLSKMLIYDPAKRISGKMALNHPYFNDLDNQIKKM
T2 sequence (P14635 whole entry partner): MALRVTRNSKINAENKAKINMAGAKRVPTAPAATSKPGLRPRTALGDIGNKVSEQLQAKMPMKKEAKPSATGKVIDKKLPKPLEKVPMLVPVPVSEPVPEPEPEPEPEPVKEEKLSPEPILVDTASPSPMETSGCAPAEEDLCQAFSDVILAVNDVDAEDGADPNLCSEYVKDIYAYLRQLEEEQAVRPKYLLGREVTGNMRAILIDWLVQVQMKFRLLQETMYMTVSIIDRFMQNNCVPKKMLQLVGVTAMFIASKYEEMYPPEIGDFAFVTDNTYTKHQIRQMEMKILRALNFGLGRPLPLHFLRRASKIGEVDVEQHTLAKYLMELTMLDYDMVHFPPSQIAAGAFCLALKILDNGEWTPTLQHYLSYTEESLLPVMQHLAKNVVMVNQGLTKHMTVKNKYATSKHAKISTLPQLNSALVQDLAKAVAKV
T1 sequence (O08775 786-1343): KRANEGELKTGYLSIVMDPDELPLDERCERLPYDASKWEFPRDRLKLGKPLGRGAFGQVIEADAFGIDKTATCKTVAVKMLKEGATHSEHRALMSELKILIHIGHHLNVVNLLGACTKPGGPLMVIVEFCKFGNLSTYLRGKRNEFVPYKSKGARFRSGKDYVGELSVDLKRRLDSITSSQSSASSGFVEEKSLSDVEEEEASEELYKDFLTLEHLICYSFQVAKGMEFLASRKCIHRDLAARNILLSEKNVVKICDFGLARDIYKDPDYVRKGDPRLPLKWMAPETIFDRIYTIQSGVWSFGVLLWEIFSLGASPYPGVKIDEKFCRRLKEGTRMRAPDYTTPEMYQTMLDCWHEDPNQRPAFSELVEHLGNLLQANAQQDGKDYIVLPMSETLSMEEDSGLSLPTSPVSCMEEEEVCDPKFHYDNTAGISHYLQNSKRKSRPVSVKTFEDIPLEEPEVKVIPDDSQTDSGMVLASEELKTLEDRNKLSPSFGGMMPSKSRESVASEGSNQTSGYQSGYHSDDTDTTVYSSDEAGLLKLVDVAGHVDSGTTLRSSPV
T4 sequence (P04626 676-1255 limits assumed): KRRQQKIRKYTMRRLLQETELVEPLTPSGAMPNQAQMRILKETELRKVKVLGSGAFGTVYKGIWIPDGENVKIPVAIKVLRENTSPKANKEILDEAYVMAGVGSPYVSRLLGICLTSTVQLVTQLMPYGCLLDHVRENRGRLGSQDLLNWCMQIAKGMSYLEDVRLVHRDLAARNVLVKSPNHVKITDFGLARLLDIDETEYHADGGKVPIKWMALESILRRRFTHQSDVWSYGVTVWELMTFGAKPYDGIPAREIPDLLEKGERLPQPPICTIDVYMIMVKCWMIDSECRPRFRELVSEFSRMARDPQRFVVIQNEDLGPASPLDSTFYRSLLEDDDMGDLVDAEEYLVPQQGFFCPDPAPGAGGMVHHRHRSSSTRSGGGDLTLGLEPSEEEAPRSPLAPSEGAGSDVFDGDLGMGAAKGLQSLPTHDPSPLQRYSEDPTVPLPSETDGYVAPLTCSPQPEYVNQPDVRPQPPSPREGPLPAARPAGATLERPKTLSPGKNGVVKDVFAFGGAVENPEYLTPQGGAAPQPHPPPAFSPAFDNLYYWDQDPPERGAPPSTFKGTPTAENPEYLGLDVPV

4-[[6-amino-5-(2,6-difluorobenzoyl)-2-pyridinyl]amino]benzonitrile [Cpd 15]
IC50 (VEGF-R2 kinase): > 10 µM | IC50 (CDK1:Cyclin-B): 0.95 µM

Nc1ccc(C(=O)c2ccccc2F)c(N)n1 [Cpd 2, (2,6-diamino-3-pyridinyl)(2-fluorophenyl)methanone]
IC50 (VEGF-R2 kinase): > 10 µM

Nc1nc(Nc2ccc(S(=O)(=O)N(Cc3ccccc3)Cc3ccccc3)cc2)ccc1C(=O)c1c(F)cccc1F [Cpd 2b, 4-[[6-amino-5-(2,6-difluorobenzoyl)-2-pyridinyl]amino]-N,N-bis(phenylmethyl)benzenesulfonamide]
IC50 (VEGF-R2 kinase): > 10 µM | IC50 (CDK1:Cyclin-B): > 10 µM

Nc1ccc(C(=O)c2ccccc2)c(N)n1 [Cpd 3, (2,6-diamino-3-pyridinyl)phenylmethanone]
IC50 (VEGF-R2 kinase): > 10 µM

Nc1ccc(C(=O)c2ccco2)c(N)n1 [Cpd 4, (2,6-diamino-3-pyridinyl)-2-furylmethanone]
IC50 (VEGF-R2 kinase): > 100 µM | IC50 (CDK1:Cyclin-B): > 100 µM

Nc1ccc(C(=O)c2cccs2)c(N)n1 [Cpd 5, (2,6-diamino-3-pyridinyl)-2-thienylmethanone]
IC50 (VEGF-R2 kinase): > 100 µM | IC50 (CDK1:Cyclin-B): > 100 µM

Nc1nc(Nc2ccc(S(N)(=O)=O)cc2)ccc1C(=O)c1c(F)cccc1F [Cpd 6, 4-[[6-amino-5-(2,6-difluorobenzoyl)-2-pyridinyl]amino]benzenesulfonamide]
IC50 (VEGF-R2 kinase): > 10 µM

CN(C)S(=O)(=O)c1ccc(Nc2ccc(C(=O)c3c(F)cccc3F)c(N)n2)cc1 [Cpd 7, 4-[[6-amino-5-(2,6-difluorobenzoyl)-2-pyridinyl]amino]-N,N-dimethylbenzenesulfonamide]
IC50 (VEGF-R2 kinase): > 10 µM | IC50 (CDK1:Cyclin-B): 0.26 µM

Nc1nc(Nc2cccc([N+](=O)[O-])c2)ccc1C(=O)c1c(F)cccc1F [Cpd 10, [2-amino-6-[(3-nitrophenyl)amino]-3-pyridinyl](2,6-difluorophenyl)methanone]
IC50 (VEGF-R2 kinase): > 100 µM

Nc1nc(Nc2cccc(Cl)c2)ccc1C(=O)c1c(F)cccc1F [Cpd 11, [2-amino-6-[(3-chlorophenyl)amino]-3-pyridinyl](2,6-difluorophenyl)methanone]
IC50 (VEGF-R2 kinase): > 100 µM | IC50 (CDK1:Cyclin-B): 6.16 µM

Nc1nc(Nc2ccccc2[N+](=O)[O-])ccc1C(=O)c1c(F)cccc1F [Cpd 12, [2-amino-6-[(2-nitrophenyl)amino]-3-pyridinyl](2,6-difluorophenyl)methanone]
IC50 (VEGF-R2 kinase): > 10 µM | IC50 (CDK1:Cyclin-B): > 10 µM

Nc1nc(Nc2ccccc2)ccc1C(=O)c1c(F)cccc1F [Cpd 13, [2-amino-6-(phenylamino)-3-pyridinyl](2,6-difluorophenyl)methanone]
IC50 (VEGF-R2 kinase): > 100 µM | IC50 (CDK1:Cyclin-B): 21.7 µM

Nc1nc(Nc2ccccn2)ccc1C(=O)c1c(F)cccc1F [Cpd 14, [2-amino-6-(2-pyridinylamino)-3-pyridinyl](2,6-difluorophenyl)methanone]
IC50 (VEGF-R2 kinase): > 100 µM

Nc1nc(Nc2ccc(C(=O)O)cc2)ccc1C(=O)c1c(F)cccc1F [Cpd 16, 4-[[6-amino-5-(2,6-difluorobenzoyl)-2-pyridinyl]amino]benzoic acid]
IC50 (VEGF-R2 kinase): > 10 µM

Nc1ccc(Nc2ccc(C(=O)c3c(F)cccc3F)c(N)n2)cc1 [Cpd 17, [2-amino-6-[(4-aminophenyl)amino]-3-pyridinyl](2,6-difluorophenyl)methanone]
IC50 (VEGF-R2 kinase): > 10 µM

CNc1ccc(Nc2ccc(C(=O)c3c(F)cccc3F)c(N)n2)cc1 [Cpd 18, [2-amino-6-[[4-(methylamino)phenyl]amino]-3-pyridinyl](2,6-difluorophenyl)methanone]
IC50 (VEGF-R2 kinase): > 10 µM

Nc1nc(Nc2ccc(NS(=O)(=O)c3ccccc3)cc2)ccc1C(=O)c1c(F)cccc1F [Cpd 19, N-[4-[[6-amino-5-(2,6-difluorobenzoyl)-2-pyridinyl]amino]phenyl]benzenesulfonamide]
IC50 (VEGF-R2 kinase): > 10 µM

Nc1ccccc1Nc1ccc(C(=O)c2c(F)cccc2F)c(N)n1 [Cpd 20, [2-amino-6-[(2-aminophenyl)amino]-3-pyridinyl](2,6-difluorophenyl)methanone]
IC50 (VEGF-R2 kinase): > 100 µM

CC(=O)Nc1ccccc1Nc1ccc(C(=O)c2c(F)cccc2F)c(N)n1 [Cpd 21, N-[2-[[6-amino-5-(2,6-difluorobenzoyl)-2-pyridinyl]amino]phenyl]acetamide]
IC50 (VEGF-R2 kinase): > 100 µM | IC50 (CDK1:Cyclin-B): > 100 µM

Nc1nc(Nc2ccccc2NC(=O)c2ccccc2)ccc1C(=O)c1c(F)cccc1F [Cpd 22, N-[2-[[6-amino-5-(2,6-difluorobenzoyl)-2-pyridinyl]amino]phenyl]benzamide]
IC50 (VEGF-R2 kinase): > 100 µM | IC50 (CDK1:Cyclin-B): > 100 µM

Nc1nc(Nc2ccccc2NS(=O)(=O)c2ccccc2)ccc1C(=O)c1c(F)cccc1F [Cpd 23, N-[2-[[6-amino-5-(2,6-difluorobenzoyl)-2-pyridinyl]amino]phenyl]benzenesulfonamide]
IC50 (VEGF-R2 kinase): > 100 µM | IC50 (CDK1:Cyclin-B): > 100 µM

CN(C)S(=O)(=O)c1ccc(Nc2ccc(C(=O)c3ccccc3F)c(N)n2)cc1 [Cpd 24, 4-[[6-amino-5-(2-fluorobenzoyl)-2-pyridinyl]amino]-N,N-dimethyl benzenesulfonamide]
IC50 (VEGF-R2 kinase): > 100 µM

CN(C)S(=O)(=O)c1ccc(Nc2ccc(C(=O)c3ccccc3)c(N)n2)cc1 [Cpd 25, 4-[(6-amino-5-benzoyl-2-pyridinyl)amino]-N,N-dimethylbenzenesulfonamide]
IC50 (VEGF-R2 kinase): > 100 µM

CCN(CC)S(=O)(=O)c1ccc(Nc2ccc(C(=O)c3ccccc3)c(N)n2)cc1 [Cpd 26, 4-[(6-amino-5-benzoyl-2-pyridinyl)amino]-N,N-diethylbenzenesulfonamide]
IC50 (VEGF-R2 kinase): > 100 µM | IC50 (CDK1:Cyclin-B): > 100 µM

CN(C)S(=O)(=O)c1ccc(Nc2ccc(C(=O)c3ccco3)c(N)n2)cc1 [Cpd 27, 4-[[6-amino-5-(2-furanylcarbonyl)-2-pyridinyl]amino]-N,N-dimethyl benzenesulfonamide]
IC50 (VEGF-R2 kinase): > 100 µM

CCN(CC)S(=O)(=O)c1ccc(Nc2ccc(C(=O)c3ccco3)c(N)n2)cc1 [Cpd 28, 4-[[6-amino-5-(2-furanylcarbonyl)-2-pyridinyl]amino]-N,N-diethylbenzenesulfonamide]
IC50 (VEGF-R2 kinase): > 100 µM | IC50 (CDK1:Cyclin-B): > 100 µM

CN(C)S(=O)(=O)c1ccc(Nc2ccc(C(=O)c3cccs3)c(N)n2)cc1 [Cpd 29, 4-[[6-amino-5-(2-thienylcarbonyl)-2-pyridinyl]amino]-N,N-dimethylbenzene sulfonamide]
IC50 (VEGF-R2 kinase): > 100 µM

CCCCOc1cc(N)nc(N)c1C(=O)c1c(F)cccc1F [Cpd 31, (2,6-Diamino-4-butoxy-pyridin-3-yl)-(2,6-difluoro-phenyl)-methanone]
IC50 (VEGF-R2 kinase): 40.2 µM | IC50 (CDK2:Cyclin-E): 1.32 µM | IC50 (HER2 kinase): 1.14 µM | IC50 (CDK1:Cyclin-B): 1.16 µM
